In patent publication US9278940B2, “Cyclic amines as bromodomain inhibitors” (Zenith Epigenetics Corp., priority 2012, dated 2016):
Where a name gives a salt, the structure may show the parent alone.

Assays:
[1] = In vivo efficacy in experimental autoimmune encephalomyelitis (EAE) model of MS; parameters: species or system mouse; conditions: female C57Bl/6 mice, MOG35-55/CFA and pertussis toxin, 28 day preventative model
From the text: Experimental autoimmune encephalomyelitis (EAE) is a T-cell-mediated autoimmune disease of the CNS which shares many clinical and histopathological features with human multiple sclerosis (MS). EAE is the most commonly used animal model of MS. […] Cytokines IL-23, IL-6 and IL-17, which are either critical for Th1 and Th17 differentiation or produced by these T cells, play a critical and non-redundant role in EAE development. Therefore, drugs targeting production of these cytokines are likely to have therapeutic potential in treatment of MS.
This study was conducted to assess the potential anti-inflammatory effect of test compounds to inhibit the inflammation and clinical EAE scores of a 28 day preventative mouse model. In this model, EAE was induced by MOG35-55/CFA immunization and pertussis toxin injection in female C57Bl/6 mice.

MV4-11 cells = test: In vivo efficacy in acute myeloid leukemia xenograft model using MV4-11 cells; parameters: species or system mouse; conditions: athymic nude mice, MV4-11 xenograft, oral 75 mg/kg b.i.d and 120 mg/kg b.i.d, tumor growth inhibition vs vehicle
Experimental: MV4-11 cells (ATCC) were grown under standard cell culture conditions and (NCr) nu/nu fisol strain of female mice age 6-7 weeks were injected 5e^6 cells/animal in 100 μl PBS+100 μl Matrigel in lower left abdominal flank. Approximately by day 18 after MV4-11 cells injection, mice were randomized based on tumor volume (L×W×H)/2) of average ^˜120 mm^3. Mice were dosed orally with compound at 75 mg/kg b.i.d and 120 mg/kg b.i.d in EA006 formulation at 10 mL/kg body weight dose volume. Tumor measurements were taken with electronic micro caliper and body weights measured on alternate days beginning from dosing period. The average tumor volumes, percent Tumor Growth Inhibition (TGI) and % change in body weights were compared relative to Vehicle control animals. The means, statistical analysis and the comparison between groups were calculated using student's t-test in Excel.

[2] = In vivo efficacy in rat collagen induced arthritis; conditions: female Lewis rats, collagen Day 1 and 7, dosed Day 11 to Day 17
Experimental: Rat collagen-induced arthritis is an experimental model of polyarthritis that has been widely used for preclinical testing of numerous anti-arthritic agents. Following administration of collagen, this model establishes a measurable polyarticular inflammation, marked cartilage destruction in association with pannus formation and mild to moderate bone resorption and periosteal bone proliferation. In this model, collagen was administered to female Lewis strain of rats on Day 1 and 7 of study and dosed with compounds from Day 11 to Day 17. Test compounds were evaluated to assess the potential to inhibit the inflammation (including paw swelling), cartilage destruction and bone resorption in arthritic rats, using a model in which the treatment is administered after the disease has been established.

hMCP-1 mRNA = test: Inhibition of hMCP-1 mRNA transcription in human PBMCs; type: cell-based; parameters: key: Active: Compounds with an IC50 value less than 30 μM are deemed to be active.; Not Active: Compounds with an IC50 value less than 30 μM are deemed to be active; conditions: Human Peripheral Blood Mononuclear Cells, 3 h
Experimental: In this example, hMCP-1 mRNA in human peripheral blood mononuclear cells was quantitated to measure the transcriptional inhibition of hMCP-1 when treated with a compound of the present disclosure.
Human Peripheral Blood Mononuclear Cells were plated (1.0×10^5 cells per well) in a 96-well plate in 45 μL RPMI-1640 containing 10% FBS and penicillin/streptomycin. The cells were treated with the test compound (45 μL at 2× concentration), and then the cells were incubated at 37° C. for 3 h before the cells were harvested. At time of harvest, cells were transferred to V-bottom plates and centrifuged at 800 rpm for 5 minutes. Spent media was removed and cell lysis solution (70 μL) was added the cells in each well and incubated for 5-10 min at room temperature, to allow for complete cell lysis and detachment. mRNA was then prepared using the “mRNA Catcher PLUS plate” (Invitrogen), according to the protocol supplied. After the last wash, as much wash buffer as possible was aspirated without allowing the wells to dry. […]
The eluted mRNA isolated was then used in a one-step quantitative real-time PCR reaction, using components of the Ultra Sense Kit together with Applied Biosystems primer-probe mixes. Real-time PCR data was analyzed, normalizing the Ct values for hMCP-1 to an internal control, prior to determining the fold induction of each unknown sample, relative to the control.

hIL-6 mRNA = test: Inhibition of hIL-6 mRNA transcription in LPS-stimulated U937 macrophages; type: cell-based, human; parameters: key: Active: Compounds with an IC50 value less than 30 μM are deemed to be active.; Not Active: Compounds with an IC50 value less than 30 μM are deemed to be active; conditions: U937 cells differentiated with PMA, 1 h pretreatment, LPS 3 h
Summary of the method: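 U937 cells differentiated to macrophages with 60 ng/mL PMA for 3 days, pretreated 1 h with compound, then stimulated with 1 ug/mL E. coli LPS for 3 h at 37° C. IL-6 mRNA measured by one-step qRT-PCR, Ct normalized to internal control, expressed as fold induction relative to control.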

IL-6 and IL-17 cytokines = test: In vivo efficacy in mouse endotoxemia model; conditions: C57/Bl6 mice, oral 75 mg/kg, inhibition of IL-6 and IL-17 post 4 hour LPS challenge 0.5 mg/kg intraperitoneally
Experimental: Sub lethal doses of Endotoxin (E. Coli bacterial lipopolysaccharide) were administered to animals to produce a generalized inflammatory response which was monitored by increases in secreted cytokines. Compounds were administered to C57/Bl6 mice orally at 75 mg/kg dose to evaluate inhibition in IL-6 and IL-17 cytokines post 4 hour challenge with Lipopolysaccharide (LPS) at 0.5 mg/kg dose intraperitoneally.

COc1cc(OC)c2c(=O)[nH]c(-c3cccc(N4CCN(C(C)C)CC4)n3)nc2c1 [Example 17, 2-(6-(4-Isopropylpiperazin-1-yl)pyridin-2-yl)-5,7-dimethoxyquinazolin-4(3H)-one Hydrochloride]
Active: In vivo activity [1] | In vivo activity (MV4-11 cells) | In vivo activity [2] | MCP-1 activity (IC50 < 30 μM) (hMCP-1 mRNA) | IL-6 activity (IC50 < 30 μM) (hIL-6 mRNA) | In vivo activity (IL-6 and IL-17 cytokines)
